Reference: US20240150333A1, “TAF1 INHIBITORS” (H. LEE MOFFITT CANCER CENTER AND RESEARCH INSTITUTE, INC., priority 2020, published 2024)

Experiments:
Assay in all cases: Bromoscan selectivity profiling (DiscoveRx)
Format in all cases: binding
Conditions in all cases: at 20,000 nM
[1] = target: T1, BRD9 (Homo sapiens, UniProt Q9H8M2)
T1 construct: purchased DiscoveRx
Experimental: (§1) qPCR-based BRD binding assay. Another method for the determination of dissociation constants of BRD-ligand complexes is offered by DiscoveRx Corp. The assay is based on competition between test compound and immobilized high-affinity ligand for binding to the KAc site of BRDs. The amount of TAF1 remaining on an immobilized high-affinity ligand in the presence of ligand is measured using a quantitative real-time polymerase chain reaction (qPCR) method that detects the associated DNA label tagged to the BRD.
(§2) Inhibitor selectivity assays To assess target selectivity, compounds with highest biochemical and cellular activities can be profiled against panels of BRDs and kinases using the services of DiscoveRx and/or Reaction biology, as we have done previously.

[2] = target: T2, BRD3(2) (Homo sapiens, UniProt Q15059)
T2 construct: 32 bromodomains (by DiscoveRx); purchased DiscoveRx (BromoScan service)
Experimental: as §1, §2

[3] = target: T3, PBRM1(2) (Homo sapiens, UniProt Q86U86)
T3 construct: PBRM1(2); purchased DiscoveRx
Experimental: as §1, §2

[4] = target: T4, BRPF2/BRD1 (Homo sapiens, UniProt O95696)
T4 construct: 32 bromodomains (by DiscoveRx); purchased DiscoveRx (BromoScan service)
Experimental: as §1, §2

[5] = target: T5, BAZ2B (Homo sapiens, UniProt Q9UIF8)
T5 construct: 32 bromodomains (by DiscoveRx); purchased DiscoveRx (BromoScan service)
Experimental: as §1, §2

[6] = target: T6, ATAD2A (Homo sapiens, UniProt Q6PL18)
T6 construct: 32 bromodomains (by DiscoveRx); purchased DiscoveRx (BromoScan service)
Experimental: as §1, §2

[7] = target: T7, BRD3(1) (Homo sapiens, UniProt Q15059)
T7 construct: 32 bromodomains (by DiscoveRx); purchased DiscoveRx (BromoScan service)
Experimental: as §1, §2

[8] = target: T8, ATAD2B (Homo sapiens, UniProt Q9ULI0)
T8 construct: 32 bromodomains (by DiscoveRx); purchased DiscoveRx (BromoScan service)
Experimental: as §1, §2

[9] = target: T9, BRPF1 (Homo sapiens, UniProt P55201)
T9 construct: purchased DiscoveRx
Experimental: as §1, §2

[10] = target: T10, BRD2(1) (Homo sapiens, UniProt P25440)
T10 construct: 32 bromodomains (by DiscoveRx); purchased DiscoveRx (BromoScan service)
Experimental: as §1, §2

[11] = target: T11, BRDT(1) (Homo sapiens, UniProt Q58F21)
T11 construct: BRDT(1); purchased DiscoveRx
Experimental: as §1, §2

T3 sequence (Q86U86 177-287 limits assumed): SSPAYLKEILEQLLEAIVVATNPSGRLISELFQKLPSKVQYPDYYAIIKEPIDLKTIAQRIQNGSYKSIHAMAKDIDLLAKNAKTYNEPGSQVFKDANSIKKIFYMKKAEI
T2 sequence (Q15059 306-415 limits assumed): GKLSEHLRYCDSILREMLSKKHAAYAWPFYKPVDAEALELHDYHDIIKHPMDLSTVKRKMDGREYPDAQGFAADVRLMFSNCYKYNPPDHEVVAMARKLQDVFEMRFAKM
T1 sequence (Q9H8M2 136-240 limits assumed): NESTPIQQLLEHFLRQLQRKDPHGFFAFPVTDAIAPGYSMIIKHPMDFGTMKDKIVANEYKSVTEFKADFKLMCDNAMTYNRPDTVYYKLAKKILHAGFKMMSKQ
T8 sequence (Q9ULI0 951-1066 limits assumed): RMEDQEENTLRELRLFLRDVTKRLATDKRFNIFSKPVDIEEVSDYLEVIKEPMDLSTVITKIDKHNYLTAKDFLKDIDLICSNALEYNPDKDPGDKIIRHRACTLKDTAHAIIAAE
T10 sequence (P25440 74-180 limits assumed): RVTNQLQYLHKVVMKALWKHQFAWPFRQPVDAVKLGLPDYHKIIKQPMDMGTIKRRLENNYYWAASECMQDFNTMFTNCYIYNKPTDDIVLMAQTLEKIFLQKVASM
T9 sequence (P55201 628-732 limits assumed): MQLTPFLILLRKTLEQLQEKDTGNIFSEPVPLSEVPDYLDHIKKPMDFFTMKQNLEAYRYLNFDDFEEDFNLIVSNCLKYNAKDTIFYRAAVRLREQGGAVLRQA
T6 sequence (Q6PL18 980-1092 limits assumed): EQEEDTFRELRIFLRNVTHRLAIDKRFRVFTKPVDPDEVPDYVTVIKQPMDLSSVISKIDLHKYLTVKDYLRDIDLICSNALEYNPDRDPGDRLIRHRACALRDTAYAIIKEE
T7 sequence (Q15059 34-140 limits assumed): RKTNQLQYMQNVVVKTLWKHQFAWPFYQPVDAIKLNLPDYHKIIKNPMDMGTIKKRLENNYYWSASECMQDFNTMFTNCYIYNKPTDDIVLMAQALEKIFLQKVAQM
T4 sequence (O95696 562-666 limits assumed): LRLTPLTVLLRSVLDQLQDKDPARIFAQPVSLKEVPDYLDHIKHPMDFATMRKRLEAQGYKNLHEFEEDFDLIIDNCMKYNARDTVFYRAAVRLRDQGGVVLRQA
T5 sequence (Q9UIF8 2060-2164 limits assumed): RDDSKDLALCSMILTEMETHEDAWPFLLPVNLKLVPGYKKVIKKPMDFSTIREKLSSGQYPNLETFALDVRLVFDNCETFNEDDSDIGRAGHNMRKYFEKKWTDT

inhibition at 20 µM [1]: 13% | inhibition at 20 µM [2]: 82% | inhibition at 20 µM [3]: 5% | inhibition at 20 µM [4]: 6% | inhibition at 20 µM [5]: 0% | inhibition at 20 µM [6]: 0% | inhibition at 20 µM [7]: 60% | inhibition at 20 µM [8]: 0% | inhibition at 20 µM [9]: 11% | inhibition at 20 µM [10]: 46% | inhibition at 20 µM [11]: 56%
SMILES: C[C@@H]1COCCN1c1cc(C2([S@](C)(=N)=O)CC2)nc(-c2cc[nH]c3nccc2-3)n1 [AZD6738]
